TGI data for 10 compounds are collected here from PubChem BioAssay (NCI).

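96-well plates; 48 h exposure; 5 concentrations. Endpoints by linear interpolation between flanking doses. Not reached: highest tested concentration assigned. TGI is the concentration that stops growth completely.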 A value given as a limit tells only on which side of the number the result lay.

Holding throughout (experiment): growth of human tumour cells (NCI), 48 h
For experiment [1], the system named is SNB-75 CNS.
Experiment [2] concerns NCI-H522 lung.
The test system of experiment [3] is RXF 393 renal.
For experiment [4], the system named is KM20L2 colon.
For experiment [5], the system named is LXFL 529 NSCLC.
Experiment [6] concerns DMS 114 small cell lung.
Experiment [7] deals with XF 498 CNS.
Experiment [8] deals with M19-MEL melanoma.
Experiment [9] deals with SNB-78 CNS.
In experiment [10] the test system is TK-10 renal.
Experiment [11] deals with DMS 273 small cell lung.
Experiment [12] relates to CCRF-CEM leukemia.
The test system of experiment [13] is DLD-1 colon.
Experiment [14] deals with SK-MEL-2 melanoma.
For experiment [15], the system named is OVCAR-5 ovarian.
In experiment [16] the test system is MCF7 breast.
Experiment [17] concerns MDA-MB-435.
Experiment [18] deals with DU-145 prostate.

As for `C=CCC(N(C)C(=O)[C@H](Cc1ccccc1)NC(=O)OCc1ccccc1)P(=O)(Oc1ccccc1)Oc1ccccc1` (some centres undefined), the TGI in [1], in experiment [2], in experiment [3], in [4], in experiment [5] and in experiment [6] was more than 100 µM throughout. Also, the TGI in experiment [7], in experiment [8], in [9], in experiment [10], in experiment [11] and in [12] was more than 100 µM throughout. Further, the TGI in experiment [13] and in [14] was more than 100 µM in each case.
As to `COC(=O)C(C#CCCCCC#CC(NC(=O)OCc1ccccc1)(C(=O)OC)C(F)(F)F)(NC(=O)OCc1ccccc1)C(F)(F)F` (centres undefined), the TGI in experiment [1], in [2], in [3], in experiment [4], in experiment [15] and in experiment [5] was more than 100 µM in each case. The TGI in experiment [6], in [8], in experiment [9], in experiment [10], in experiment [12] and in [13] was more than 100 µM throughout.
For the compound `CC1CN(c2ccc(Cl)cc2)CC(C)OC(=O)O1` (centres undefined), the TGI in experiment [1], in experiment [2], in experiment [3], in experiment [4], in experiment [15] and in [5] was more than 100 µM in each case. Besides, the TGI in [6], in [7], in [8], in experiment [9], in experiment [10] and in [11] was more than 100 µM in each case. Further, the TGI in [12], in experiment [13] and in experiment [14] was more than 100 µM each time.
For `C=CCNC(=O)N(CCCC(NC(C)=O)C(=O)NCc1ccccc1)Cc1ccccc1` (centres undefined), the TGI in experiment [1], in experiment [2], in experiment [3], in [4], in experiment [15] and in experiment [5] was more than 100 µM throughout. Also, the TGI in experiment [6], in experiment [7], in experiment [8], in experiment [10], in experiment [11] and in experiment [12] was more than 100 µM in each case. The same compound returned a TGI in experiment [14] of more than 100 µM.
Take `COC(=O)/C(=N\NC(=O)C[N+](C)(C)C)C(C(=O)OC)C(=O)C(=O)Nc1ccccc1C(N)=O` (centres undefined): the TGI in [1], in [2], in [3], in experiment [4], in experiment [15] and in experiment [5] was more than 100 µM in each case. Also, the TGI in experiment [8], in experiment [9], in experiment [10], in experiment [11], in experiment [12] and in experiment [13] was more than 100 µM in each case. The compound further gave a TGI in experiment [14] of more than 100 µM.
For `Clc1ccc(N=Nc2nc3ccccc3nc2N=Nc2ccc(Cl)cc2Cl)c(Cl)c1`, the TGI was 93.4 µM in experiment [1]; more than 100 µM in [2]; more than 100 µM in [3]; more than 100 µM in experiment [4]; more than 100 µM in experiment [5]; more than 100 µM in experiment [6]. In addition, the TGI in [7], in experiment [8], in experiment [9], in experiment [10], in [13] and in experiment [14] was more than 100 µM throughout.
For the compound `COc1ccc(N=Cc2ccc(N(CCC#N)S(=O)(=O)c3ccccc3)cc2)cc1`, the TGI in experiment [1], in experiment [2], in [3], in experiment [4], in experiment [15] and in [5] was more than 100 µM throughout. Also, the TGI in experiment [6], in experiment [7], in [8], in [9], in experiment [10] and in experiment [11] was more than 100 µM throughout. Besides, the TGI in experiment [12], in experiment [13] and in [14] was more than 100 µM each time.
Consider `O=C1c2ccccc2OP(=O)(OCC(F)(F)F)OC1(C(F)(F)F)C(F)(F)F` (centres undefined), for which the TGI in [1], in [2], in [3], in experiment [4], in experiment [15] and in [5] was more than 100 µM each time. Also, the TGI in experiment [6], in [7], in experiment [8], in experiment [9], in [10] and in [11] was more than 100 µM each time. The TGI in experiment [12] and in experiment [14] was more than 100 µM throughout.
In the case of `N#C/C(c1nc2ccccc2[nH]1)=c1\s/c(=C/c2ccc(Cl)cc2)c(=O)n1-c1ccccc1`, the TGI in experiment [1], in experiment [2], in experiment [4], in experiment [15], in experiment [5] and in experiment [6] was more than 100 µM each time. In addition, the TGI in experiment [7], in experiment [8], in experiment [10], in experiment [11], in experiment [12] and in experiment [13] was more than 100 µM each time. Moreover, the TGI in experiment [14] was more than 100 µM.
Regarding `CN(C)C(=S)/N=c1\ssc(=S)n1Cc1cccnc1`, the TGI in experiment [1] is 20.6 µM; in [2], 9.61 µM; in experiment [3], 17.8 µM; in experiment [16], more than 100 µM; in [4], 4.27 µM; in experiment [15] it was more than 100 µM. Moreover, the TGI in experiment [5] was more than 100 µM; in [6] it was 3.89 µM; in experiment [7] it was 47.1 µM; in experiment [8], more than 46.6 µM; in experiment [9], more than 100 µM; in experiment [10], more than 100 µM. In addition, the TGI in [11] was more than 100 µM; in [12] it was more than 86.1 µM; in [13], more than 100 µM; in experiment [14], more than 35.8 µM; in [17], 1.57 µM; in experiment [18], more than 64.3 µM.
